Laboratory results as given in patent US20100063032A1, “SUBSTITUTED PYRIDO[2,3-D]PYRIMIDINE DERIVATIVES AS CANNABINOID-1 RECEPTOR MODULATORS” (priority 2007, published 2010).

Assays:
[1] = target: recombinant human CB1 receptor expressed in CHO cells (Homo sapiens, UniProt P21554); test: Cannabinoid Receptor-1 (CB1) Functional Activity Assay (intracellular cAMP, forskolin); assay type: cell-based; conditions: for EC50: cAMP level with forskolin; for functional mode at CB1 receptor: cAMP, Biological Example 3
Protocol: The functional activation of CB1 receptor is based on recombinant human CB1 receptor expressed in CHO cells (Felder et al, Mol. Pharmacol. 48: 443-450, 1995). To determine the agonist activity or inverse agonist activity of any test compound, 50 ul of CB1-CHO cell suspension are mixed with test compound and 70 ul assay buffer containing 0.34 mM 3-isobutyl-1-methylxanthine and 5.1 uM of forskolin in 96-well plates. The assay buffer is comprised of Earle's Balanced Salt Solution supplemented with 5 mM MgCl2, 1 mM glutamine, 10 mM HEPES, and 1 mg/mL bovine serum albumin. The mixture is incubated at room temperature for 30 minutes, and terminated by adding 30 ul/well of 0.5M HCl. The total intracellular cAMP level is quantitated using the New England Nuclear Flashplate and cAMP radioimmunoassay kit.
To determine the antagonist activity of test compound, the reaction mixture also contains 0.5 nM of the agonist CP55940 (or 50 nM of methanandamide), and the reversal of the CP55940 (or methanandamide) effect is quantitated with increasing concentration of the test compound. Intracellular cAMP is determined as described above. An IC50 value for the test compound is calculated from the titration curve.
Alternatively, a series of dose response curves for the agonist CP55940 (or methanandamide) is performed with increasing concentration of the test compound in each of the dose response curves, and a Schild analysis is carried to calculate the Kb value which is an estimation of test compound binding affinity.

[2] = target: recombinant human CB1 receptor (Homo sapiens, UniProt P21554); test: Cannabinoid Receptor-1 (CB1) Binding Assay ([3H]CP-55940 displacement); conditions: recombinant human CB1 in CHO cell membranes, 0.6 nM [3H]CP-55940
Protocol: Binding affinity determination is based on recombinant human CB1 receptor expressed in Chinese Hamster Ovary (CHO) cells (Felder et al, Mol. Pharmacol. 48: 443-450, 1995). Total assay volume is 250 μl (240 μl CB1 receptor membrane solution plus 5 μl test compound solution plus 5 μl [3H]CP-55940 solution). Final concentration of [3H]CP-55940 is 0.6 nM. Binding buffer contains 50 mM Tris-HCl, pH 7.4, 2.5 mM EDTA, 5 mM MgCl28, 0.5 mg/mL fatty acid free bovine serum albumin and protease inhibitors (Cat#P8340, from Sigma). To initiate the binding reaction, 5 μl of radioligand solution is added, the mixture is incubated with gentle shaking on a shaker for 1.5 h at 30° C. The binding is terminated by using 96-well harvester and filtering through GF/C filter presoaked in 0.05% polyethylenimine. The bound radiolabel is quantitated using scintillation counter. Apparent binding affinities for various compounds are calculated from IC50 values (DeBlasi et al., Trends Pharmacol Sci 10: 227-229, 1989).

recombinant human CB1 receptor, sequence (P21554 whole entry): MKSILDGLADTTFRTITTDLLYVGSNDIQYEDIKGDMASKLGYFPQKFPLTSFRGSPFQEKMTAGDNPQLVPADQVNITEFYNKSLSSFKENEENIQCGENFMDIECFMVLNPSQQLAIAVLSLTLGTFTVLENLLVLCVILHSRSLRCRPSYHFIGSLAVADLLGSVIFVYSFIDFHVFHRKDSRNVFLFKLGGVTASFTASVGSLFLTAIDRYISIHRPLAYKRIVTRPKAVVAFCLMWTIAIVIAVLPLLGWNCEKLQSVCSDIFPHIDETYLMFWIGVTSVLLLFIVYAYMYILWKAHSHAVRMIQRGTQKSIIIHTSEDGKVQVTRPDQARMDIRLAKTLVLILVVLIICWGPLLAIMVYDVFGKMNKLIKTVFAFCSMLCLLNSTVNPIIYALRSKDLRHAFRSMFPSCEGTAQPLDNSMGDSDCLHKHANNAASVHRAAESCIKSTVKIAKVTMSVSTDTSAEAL
recombinant human CB1 receptor expressed in CHO cells, sequence (P21554 whole entry): as above

CC(C)(C)c1nc(N)c2cc(-c3ccc(Cl)cc3)c(-c3ccc(Cl)cc3Cl)nc2n1 [Example 3, 2-Tert-butyl-6-(4-chlorophenyl)-7-(2,4-dichlorophenyl)pyrido[2,3-d]pyrimidin-4-amine]
EC50 [1]: < 15 nM
functional mode at CB1 receptor [1]: functional inverse agonists
IC50 [2]: 11 nM

CC(C)(C)c1nc2nc(-c3ccccc3Cl)c(-c3ccc(Cl)cc3)cc2c(=O)[nH]1 [Example 11, 2-Tert-butyl-7-(2-chlorophenyl)-6-(4-chlorophenyl)pyrido[2,3-d]pyrimidin-4(3H)-one]
EC50 [1]: < 15 nM
functional mode at CB1 receptor [1]: functional inverse agonists
IC50 [2]: 7 nM

CC(C)(C)c1nc2nc(-c3ccc(-c4cn[nH]c4)cc3Cl)c(-c3ccc(Cl)cc3)cc2c(=O)[nH]1 [Example 25, 2-Tert-butyl-6-(4-chlorophenyl)-7-[2-chloro-4-(1H-pyrazol-4-yl)phenyl]pyrido[2,3-d]pyrimidin-4(3H)-one]
EC50 [1]: < 15 nM
functional mode at CB1 receptor [1]: functional inverse agonists
IC50 [2]: 10 nM

CC(C)(C)Nc1nc(C(C)(C)C)nc2nc(-c3ccccc3Cl)c(-c3ccc(Cl)cc3)cc12 [Example 48, N,2-Di-tert-butyl-7-(2-chlorophenyl)-6-(4-chlorophenyl)pyrido[2,3-d]pyrimidin-4-amine]
EC50 [1]: < 15 nM
functional mode at CB1 receptor [1]: functional inverse agonists
IC50 [2]: 3 nM

CC(C)(C)c1nc(NCC(F)(F)F)c2cc(-c3ccc(Br)cc3)c(-c3ccccc3Cl)nc2n1 [Example 58, 6-(4-Bromophenyl)-2-tert-butyl-7-(2-chlorophenyl)-N-(2,2,2-trifluoroethyl)pyrido[2,3-d]pyrimidin-4-amine]
EC50 [1]: < 15 nM
functional mode at CB1 receptor [1]: functional inverse agonists
IC50 [2]: 2 nM

Cn1c(-c2ccc(Cl)cc2)nc2nc(-c3ccccc3Cl)c(-c3ccc(Cl)cc3)cc2c1=O [Example 60, 7-(2-Chlorophenyl)-2,6-bis(4-chlorophenyl)-3-methylpyrido[2,3-d]pyrimidin-4(3H)-one]
EC50 [1]: < 15 nM
functional mode at CB1 receptor [1]: functional inverse agonists
IC50 [2]: 4 nM

CC(C)(C)c1nc(C#N)c2cc(-c3ccc(C#N)cc3)c(-c3ccccc3Cl)nc2n1 [Example 69, 2-Tert-butyl-7-(2-chlorophenyl)-6-(4-cyanophenyl)pyrido[2,3-d]pyrimidine-4-carbonitrile]
EC50 [1]: < 15 nM
functional mode at CB1 receptor [1]: functional inverse agonists
IC50 [2]: 2 nM

CC(C)(C)c1nc(-c2ccc(F)cc2)c2cc(-c3ccc(Cl)cc3)c(-c3ccccc3Cl)nc2n1 [Example 72, 2-Tert-butyl-7-(2-chlorophenyl)-6-(4-chlorophenyl)-4-(4-fluorophenyl)pyrido[2,3-d]pyrimidine]
EC50 [1]: < 15 nM
functional mode at CB1 receptor [1]: functional inverse agonists
IC50 [2]: 0.6 nM
